Experimental data taken from the supplement of paper PMC10627819.

Experiments:
[1] = tested on: S. pneumoniae D39V; experiment: fitness (endpoint OD595 vs no drug) (fraction); higher = more growth
How it was run: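 Fitness was measured as bacterial growth in 384-well plates inoculated at OD595 0.01 (30 µl, or 55 µl for S. pneumoniae). Media were TSB, LB Lennox or CY, at 37 °C. OD595 was read every 30 min for 14 h and background-subtracted against the first reading. Fitness is OD595 at the transition into stationary phase divided by the robust mean of no-drug control wells, capped at 1.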

[2] = tested on: B. subtilis 168; experiment: Bliss interaction score (quartile over a dose matrix) (fitness difference); higher = more antagonism (negative = synergy)
How it was run: (§1)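 The Bliss score was calculated by subtracting the expected fitness, the product of single-drug values, from the observed fitness. OD595 at entry into stationary phase, over the plate's robust no-drug mean and capped at 1, served as the fitness readout. Single-drug values were inferred from combination data, and scores are summarised by quartiles across technical, biological and donor/recipient replicates.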

[3] = tested on: S. aureus DSM 20231; experiment: as above
How it was run: as §1

[4] = tested on: S. aureus Newman; experiment: as above
How it was run: as §1

[5] = tested on: S. pneumoniae D39V; experiment: as above
How it was run: as §1
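Throughout, for Bliss interaction score (quartile over a dose matrix): first quartile when negative (synergy) and third quartile when positive (antagonism).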

**Q.** Which results are given for `C[C@H]1COc2c(N3CCN(C)CC3)c(F)cc3c(=O)c(C(=O)O)cn1c23` [Levofloxacin] + C/C(=C\C(=O)OCCCCCCCCC(=O)O)C[C@@H]1OC[C@H](C[C@@H]2O[C@H]2[C@@H](C)[C@H](C)O)[C@@H](O)[C@H]1O [Pseudomonic acid]?
**A.** fitness ([1]; first compound 0.1725 µg/mL, partner 0.03 µg/mL): 0.875; fitness ([1]; first compound 0.1725 µg/mL, partner 0.06 µg/mL): 0.822; fitness ([1]; first compound 0.1725 µg/mL, partner 0.12 µg/mL): 0.57; fitness ([1]; first compound 0.2 µg/mL, partner 0.03 µg/mL): 0.899; fitness ([1]; first compound 0.2 µg/mL, partner 0.06 µg/mL): 0.752; fitness ([1]; first compound 0.2 µg/mL, partner 0.12 µg/mL): 0.573; fitness ([1]; first compound 0.345 µg/mL, partner 0.03 µg/mL): 0.856; fitness ([1]; first compound 0.345 µg/mL, partner 0.06 µg/mL): 0.781; fitness ([1]; first compound 0.345 µg/mL, partner 0.12 µg/mL): 0.524; fitness ([1]; first compound 0.4 µg/mL, partner 0.03 µg/mL): 0.882; fitness ([1]; first compound 0.4 µg/mL, partner 0.06 µg/mL): 0.766; fitness ([1]; first compound 0.4 µg/mL, partner 0.12 µg/mL): 0.599; fitness ([1]; first compound 0.69 µg/mL, partner 0.03 µg/mL): 0.598; fitness ([1]; first compound 0.69 µg/mL, partner 0.06 µg/mL): 0.541; fitness ([1]; first compound 0.69 µg/mL, partner 0.12 µg/mL): 0.376; fitness ([1]; first compound 0.8 µg/mL, partner 0.03 µg/mL): 0.647; fitness ([1]; first compound 0.8 µg/mL, partner 0.06 µg/mL): 0.687; fitness ([1]; first compound 0.8 µg/mL, partner 0.12 µg/mL): 0.519; Bliss interaction score [2]: 0.0468; Bliss interaction score [3]: 0.0199; Bliss interaction score [4]: 0.0537; Bliss interaction score [5]: 0.0974

**Q.** Which fitness ([1]; first compound 0.1725 µg/mL, partner 0.125 µg/mL) does the source give for `C[C@H]1COc2c(N3CCN(C)CC3)c(F)cc3c(=O)c(C(=O)O)cn1c23` [Levofloxacin] + CN[C@H](CC(C)C)C(=O)N[C@H]1C(=O)N[C@@H](CC(N)=O)C(=O)N[C@H]2C(=O)N[C@H]3C(=O)N[C@H](C(=O)N[C@H](C(=O)O)c4cc(O)cc(O)c4-c4cc3ccc4O)[C@H](O)c3ccc(c(Cl)c3)Oc3cc2cc(c3O[C@@H]2O[C@H](CO)[C@@H](O)[C@H](O)[C@H]2O[C@H]2C[C@](C)(N)[C@H](O)[C@H](C)O2)Oc2ccc(cc2Cl)[C@H]1O [Vancomycin] here?
**A.** 0.857

**Q.** What about the fitness ([1]; first compound 0.1725 µg/mL, partner 0.5 µg/mL) of the same molecule?
**A.** 0.0371

**Q.** What about the fitness ([1]; first compound 0.2 µg/mL, partner 0.03125 µg/mL) of the same molecule?
**A.** 0.931

**Q.** What about the fitness ([1]; first compound 0.2 µg/mL, partner 0.0625 µg/mL) of the same molecule?
**A.** 0.893

**Q.** What about the fitness ([1]; first compound 0.2 µg/mL, partner 0.125 µg/mL) of the same molecule?
**A.** 0.704

**Q.** And the fitness ([1]; first compound 0.345 µg/mL, partner 0.125 µg/mL)?
**A.** 0.818

**Q.** What about the fitness ([1]; first compound 0.345 µg/mL, partner 0.5 µg/mL) of the same molecule?
**A.** 0.0522

**Q.** And the fitness ([1]; first compound 0.4 µg/mL, partner 0.03125 µg/mL)?
**A.** 0.834

**Q.** And the fitness ([1]; first compound 0.4 µg/mL, partner 0.0625 µg/mL)?
**A.** 0.812

**Q.** And the fitness ([1]; first compound 0.4 µg/mL, partner 0.125 µg/mL)?
**A.** 0.605

**Q.** What about the fitness ([1]; first compound 0.69 µg/mL, partner 0.25 µg/mL) of the same molecule?
**A.** 0.213

**Q.** What about the fitness ([1]; first compound 0.69 µg/mL, partner 0.5 µg/mL) of the same molecule?
**A.** 0.0787

**Q.** What about the fitness ([1]; first compound 0.8 µg/mL, partner 0.03125 µg/mL) of the same molecule?
**A.** 0.365

**Q.** What about the fitness ([1]; first compound 0.8 µg/mL, partner 0.0625 µg/mL) of the same molecule?
**A.** 0.436

**Q.** And the fitness ([1]; first compound 0.8 µg/mL, partner 0.125 µg/mL)?
**A.** 0.292

**Q.** And the Bliss interaction score [2]?
**A.** 0.0448

**Q.** What about the Bliss interaction score [3] of the same molecule?
**A.** -0.0494

**Q.** What about the Bliss interaction score [4] of the same molecule?
**A.** -0.0425

**Q.** What about the Bliss interaction score [5] of the same molecule?
**A.** -0.1

**Q.** `C[C@H]1COc2c(N3CCN(C)CC3)c(F)cc3c(=O)c(C(=O)O)cn1c23` [Levofloxacin] + CO[C@H]1/C=C/O[C@@]2(C)Oc3c(C)c(O)c4c(O)c(c(/C=N/N5CCN(C)CC5)c(O)c4c3C2=O)NC(=O)/C(C)=C\C=C\[C@H](C)[C@H](O)[C@@H](C)[C@@H](O)[C@@H](C)[C@H](OC(C)=O)[C@@H]1C [Rifampicin] was tested. Which fitness ([1]; first compound 0.1725 µg/mL, partner 0.05 µg/mL) did it give?
**A.** 0.902

**Q.** What about the fitness ([1]; first compound 0.1725 µg/mL, partner 0.2 µg/mL) of the same molecule?
**A.** 0.356

**Q.** What about the fitness ([1]; first compound 0.2 µg/mL, partner 0.025 µg/mL, one replicate) of the same molecule?
**A.** 0.843

**Q.** What about the fitness ([1]; first compound 0.2 µg/mL, partner 0.2 µg/mL, one replicate) of the same molecule?
**A.** 0

**Q.** And the fitness ([1]; first compound 0.345 µg/mL, partner 0.05 µg/mL)?
**A.** 0.848

**Q.** And the fitness ([1]; first compound 0.4 µg/mL, partner 0.025 µg/mL, one replicate)?
**A.** 0.805

**Q.** And the fitness ([1]; first compound 0.4 µg/mL, partner 0.05 µg/mL)?
**A.** 0.724

**Q.** What about the fitness ([1]; first compound 0.4 µg/mL, partner 0.2 µg/mL, one replicate) of the same molecule?
**A.** 0

**Q.** What about the fitness ([1]; first compound 0.69 µg/mL, partner 0.05 µg/mL) of the same molecule?
**A.** 0.611

**Q.** And the fitness ([1]; first compound 0.69 µg/mL, partner 0.2 µg/mL)?
**A.** 0.288

**Q.** What about the fitness ([1]; first compound 0.8 µg/mL, partner 0.025 µg/mL, one replicate) of the same molecule?
**A.** 0.725

**Q.** And the fitness ([1]; first compound 0.8 µg/mL, partner 0.05 µg/mL)?
**A.** 0.665

**Q.** What about the fitness ([1]; first compound 0.8 µg/mL, partner 0.2 µg/mL, one replicate) of the same molecule?
**A.** 0

**Q.** What about the Bliss interaction score [2] of the same molecule?
**A.** 0.0398

**Q.** What about the Bliss interaction score [3] of the same molecule?
**A.** 0.0251

**Q.** And the Bliss interaction score [4]?
**A.** 0.0412

**Q.** What about the Bliss interaction score [5] of the same molecule?
**A.** 0.11
